From patent publication US20230277549A1, “NOTCH SIGNALING INHIBITORS FOR TREATING OBESITY AND METABOLIC DISORDERS” (Purdue Research Foundation, priority 2020, published 2023)
“Also recorded” adds a separate entry of the source.

Assays:
[1] = tested on: Notch signaling (target gene Hes1); assay: Notch inhibition: Hes1 mRNA by real-time qPCR in 3T3-L1 preadipocytes; format: cell-based; details: for mRNA expression of Hes1: 3T3-L1 preadipocytes, 1 μM, 12 h, real-time qPCR; for dose dependence of the inhibitory effect on Hes1 expression: 0.5, 1 and 10 μM
Procedure: (§1) Cell culture and drug treatment. 3T3-L1 preadipocytes were cultured in Dulbecco's modified Eagle medium (DMEM) supplemented with 10% fetal bovine serum (FBS) and 1% antibiotics (penicillin and streptomycin) at 37° C., 5% CO2, and 95% relative humidity. The medium was routinely changed every two days and cells were separated by trypsin before reaching confluency. Beige adipocyte differentiation was induced by treating confluent preadipocytes with the adipogenic induction medium containing DMEM, 10% FBS, 0.5 mM isobutylmethylxanthine, 1 μM dexamethasone, 1.75 μM insulin, and 1 μM rosiglitazone. Three days after induction, medium was switched to the differentiation medium containing DMEM, 10% FBS, 850 nM insulin, and 10 nM triiodothyronine until adipocytes matured. For the drug treatment, a series of GSIs were added to the cells in culture medium at the same final drug concentrations of 0.5, 1, and 10 μM, respectively, and cells were induced for differentiation.
(§2) RNA extraction, cDNA synthesis, and real-time qPCR. Total RNA was extracted from cells using TRIzol (Thermo Fisher Scientific, Waltham, Mass., USA) in accordance with the manufacturer's protocol. RNA was treated with RNase-free DNase I to remove contaminating genomic DNA and the purity as well as concentration of extracted RNA were determined by a spectrophotometer NanoDrop 2000c (Thermo Fisher Scientific, Waltham, Mass., USA). Subsequently, 2 μg of RNA was reverse transcribed to cDNA using random hexamer primers with M-MLV reverse transcriptase (Invitrogen, Carlsbad, Calif., USA). Real-time qPCR was performed in the Roche Light Cycler 480 PCR system (Roche, Basel, Switzerland) with SYBR Green master mix.
(§3) The 2^−ΔΔCT method was used to analyze the relative changes of gene expression after normalization to the expression of β-Actin.
To determine the impact of GSIs on inhibition of Notch signaling, 3T3-L1 preadipocytes were treated with a series of GSIs (see Table 1) at a concentration of 1 μM and the change in mRNA expression of Hes1, a Notch downstream transcriptional target gene, was evaluated using real-time qPCR.
To further examine the relationship between drug concentration and inhibitory effect of GSIs, cells were treated with the four most promising inhibitors (i.e., RO4929097, PF-03084014, LY3039478, and BMS-906024) at three gradient concentrations (0.5, 1, and 10 μM).
Effect of RO4929097-PLGA NPs on the Notch signaling target gene. 3T3-L1 preadipocytes were treated with DMSO, PLGA NPs (0.1 mg/mL), DBZ (10 μM), RO4929097 (1 μM) or RO4929097-PLGA NPs (0.1 mg/ml) for 12 h at 37° C. in a 5% CO2 incubator. The Notch target Hes1 mRNA expression was analyzed by qRT-PCR (FIG. 8). Each bar is the mean±SEM of 4 to 5 replicates in each group and the data were analyzed by one-way ANOVA followed by Tukey's post hoc comparison test. Asterisks refer to statistical difference between the indicated treatment groups (*p<0.05, **p<0.01, and ***p<0.001).

[2] = tested on: UCP1 in differentiated 3T3-L1 cells; assay: UCP1 immunofluorescence staining; format: cell-based; details: 1 μM
Procedure: Immunofluorescence staining. After washing with phosphate-buffered saline (PBS), cells were fixed with 4% PFA, quenched with glycine (100 mM glycine and 0.1% sodium azide in PBS), and blocked with PBS containing 2% BSA, 5% goat serum, and 0.2% Triton X-100 for 1 h at room temperature. Subsequently, cells were incubated with the UCP1 antibody diluted at 1:500 in the same blocking buffer overnight at 4° C. and the Alexa Fluor® 488 conjugated goat anti-rabbit IgG (1:1000 dilution) for 1 h at room temperature. Nuclei were counterstained with 4′,6-diamidino-2-phenylindole (DAPI, 1 μg/mL), which was premixed with the secondary antibody.

[3] = tested on: differentiated 3T3-L1 cells; assay: mRNA expression of adipogenic, mitochondrial and browning marker genes by real-time qPCR; format: cell-based; details: for increase of mRNA expression of Tmem26: 0.5, 1 and 10 μM, highest dose significant versus control
Procedure: as §1, §2, §3

[4] = tested on: UCP1, PPARγ, and C/EBPα in differentiated 3T3-L1 cells; assay: Western blot of UCP1, PPARγ and C/EBPα protein; format: cell-based; details: for protein expression of UCP1 / decrease of the upregulated UCP1 protein expression: western blot; for decrease of the upregulated UCP1 protein expression: increasing the concentration from 1 to 10 μM
Procedure: as §1
Protein extraction and western blotting. Total protein was extracted from cells using RIPA buffer containing 25 mM Tris-HCl (pH 8.0), 150 mM NaCl, 1 mM EDTA, 0.5% NP-40, 0.5% sodium deoxycholate and 0.1% SDS. Protein concentrations were determined by Pierce BCA Protein Assay Reagent (Pierce Biotechnology, Waltham, Mass., USA). Proteins were separated by SDS-PAGE and transferred to a polyvinylidene fluoride membrane (Millipore, Burlington, Mass., USA). The membrane was then blocked with 5% fat-free milk for 1 h at room temperature and incubated with primary antibodies in 5% milk overnight at 4° C. as well as secondary antibodies for 1 h at room temperature. Primary antibodies, including UCP1 (1:1000 dilution), C/EBPα (1:500 dilution), PPARγ (1:500 dilution), and β-Actin (1:5000 dilution), were used. HRP-conjugated secondary antibodies, including anti-rabbit and anti-mouse IgG, were also used at a dilution of 1:10,000. A luminol reagent for enhanced chemiluminescence detection of western blots (Santa Cruz Biotechnology, Dallas, Tex., USA) was employed and signals were detected with a FluorChem R imaging system (ProteinSimple, San Jose, Calif., USA).
The protein expression of adipogenic markers, such as PPARγ and C/EBPα, was also evaluated.

3T3-L1 preadipocytes = assay: Cell viability, MTS assay; details: 0.5, 1 and 10 μM, 12 h
Procedure: Assessment of cell viability. In vitro cell viability after incubation with various GSIs at three concentrations was determined using an MTS assay, which is based on the mitochondrial conversion of a tetrazolium salt. 3T3-L1 preadipocytes were seeded onto 96-well plates at a density of 1×10^4 cells per well and cultured in 5% CO2 at 37° C. for 48 h. GSIs were then added to the cells in culture medium at the same final drug concentrations of 0.5, 1, and 10 μM, respectively, and cells were further incubated at 37° C. for 12 h. Subsequently, 20 μL of CellTiter 96® AQueous one solution reagent was added to each well in 100 μL of culture medium and incubated at 37° C. in a humidified, 5% CO2 atmosphere for 2 h. The absorbance was measured using a Tecan Spark™ 10M microplate reader (Tecan, Mannedorf, Switzerland) at a wavelength of 490 nm with background subtraction at 680 nm. Cells incubated with 0.1% Triton X-100 and dimethyl sulfoxide (DMSO) in culture medium served as positive and negative controls, respectively.
Effects of GSIs on cell viability. To investigate effects of GSIs on cell viability, 3T3-L1 preadipocytes were treated with GSIs at three gradient concentrations (0.5, 1, and 10 μM) for 12 h.

[5] = tested on: Notch (Hes1) in human tumor-derived cells; details: cited from earlier work
[6] = all the concentrations (0.5, 1, 10 μM)

Row | Compound | mRNA expression of Hes1 [1] | increase of mRNA expression of Tmem26 [3] | protein expression of UCP1 ([4]; 1 μM) | dose dependence of the inhibitory effect on Hes1 expression [1] | cell viability / cytotoxicity (3T3-L1 preadipocytes) | other results
1 | NC(=O)[C@@H](CCC(F)(F)F)N(Cc1ccc(-c2ncon2)cc1F)S(=O)(=O)c1ccc(Cl)cc1 [BMS-708163] | did not significantly decrease; also recorded: relatively moderate inhibitory effect |  |  |  |  | 
2 | CN1C(=O)[C@@H](NC(=O)[C@H](CCC(F)(F)F)[C@H](CCC(F)(F)F)C(N)=O)N=C(c2ccccc2)c2ccccc21 [BMS-906024] | significantly inhibited | in a dose-dependent manner | minimal impact | more significant with increasing the drug concentration |  | UCP1 positive adipocytes (UCP1 expression) [2]: minimal efficiency; protein expression of C/EBPα ([4]; 1 μM): significantly upregulated
3 | CC(C)[C@H](O)C(=O)N[C@@H](C)C(=O)N[C@@H]1C(=O)N(C)CCc2ccccc21 [LY450139] | did not significantly decrease |  |  |  |  | 
4 | C[C@H](NC(=O)CCC(F)(F)F)C(=O)N[C@@H]1C(=O)N(CCO)c2ncccc2-c2ccccc21 [LY3039478] | significantly inhibited | in a dose-dependent manner | significant upregulation | more significant with increasing the drug concentration | did not result in any significant cytotoxicity | mRNA expression of Cox5B ([3]; 10 μM): Significant upregulation; mRNA expression of Ppargc1α ([3]; 10 μM): significant changes; protein expression of C/EBPα [4, 6]: significantly upregulated; protein expression of UCP1 ([4]; high concentration of 10 μM): did not significantly change
5 | O=C(O)CC[C@H]1CC[C@@](c2cc(F)ccc2F)(S(=O)(=O)c2ccc(Cl)cc2)CC1 [MK-0752] | did not significantly decrease; also recorded: relatively moderate inhibitory effect |  |  |  |  | 
6 | CCC[C@H](N[C@H]1CCc2cc(F)cc(F)c2C1)C(=O)Nc1cn(C(C)(C)CNCC(C)(C)C)cn1 [PF-03084014] | significantly inhibited | in a dose-dependent manner | significantly upregulated | more significant with increasing the drug concentration | decreased with increasing the drug concentration | mRNA expression of Cox5B ([3]; 1 μM): Significant upregulation; mRNA expression of Ppargc1α ([3]; 10 μM): significant changes; decrease of the upregulated UCP1 protein expression [4]: around 50%
7 | CC(C)(C(=O)NCC(F)(F)C(F)(F)F)C(=O)N[C@@H]1C(=O)Nc2ccccc2-c2ccccc21 [RO4929097] | significantly inhibited |  | significantly upregulated | did not result in a dose-dependent depression | decreased with increasing the drug concentration | concentration above which no further reduction in mRNA level of Hes1 [5]: > 1 µM; concentration above which no further reduction in protein level of Hes1 [5]: higher than 0.5 μM; concentration at which dose-dependent inhibition of Notch begins [5]: ≥ 0.1 µM; mRNA expression of Cox5B [3, 6]: increased; protein expression of C/EBPα [4, 6]: significantly upregulated; decrease of the upregulated UCP1 protein expression [4]: around 50%
